Experimental data taken from patent publication US7241782B1, “Polymorph V of torasemide” (PLIVA, farmaceutska industrija, dionicko drustvo, priority 2000, dated 2007).

Columns and labels:
[1] = Release of the active substance in water (USP 24); assay type: physicochemical; conditions: for Released torasemide: water, USP 24, 37° C., 50 rpm, 1000 ml
Procedure: This makes the novel polymorph V of torasemide suitable for the preparation of pharmaceutical preparations having immediate or prolonged action. The novel polymorph V of torasemide obtained according to Example 1 of the present invention was subjected to testing the release of the active substance in water at the temperature of 37° C. [table]

[2] = Stability at milling and pressing under normal storage conditions; assay type: physicochemical

Release in comparison with the release profile of known crystalline torasemide modifications ([1]; in water (USP 24), same medium): slower release
Released torasemide ([1]; time 0 min): 0%
Released torasemide ([1]; time 15 min): 11.3%
Released torasemide ([1]; time 30 min): 20.5%
Released torasemide ([1]; time 45 min): 26.0%
Released torasemide ([1]; time 60 min): 30.0%
Released torasemide ([1]; time 90 min): 36.0%
Released torasemide ([1]; time 120 min): 40.7%
Stability of the crystal form (no transformation into modifications I, II, III or amorphous) [2]: stable at milling and pressing
SMILES: Cc1cccc(Nc2ccncc2S(=O)(=O)NC(=O)NC(C)C)c1 [novel polymorph V of torasemide, N-(1-methylethylaminocarbonyl)-4-(3-methyl-phenylamino)-3-pyridinesulfonamide]
